The IC50 is the concentration that gives 50% inhibition. High values mean lower potency, low ones higher potency.

The target in series [1] is T1, Coagulation factor X (Homo sapiens, UniProt P00742). Kind of series: Inhibition of factor 10a (unknown origin).
The target of series [2] is T1, Coagulation factor X. Kind of series: Binding affinity to factor 10a (unknown origin) assessed as association rate constant by SPR assay.
Series [3] concerns the target T1, Coagulation factor X. Kind of series: Binding affinity to factor 10a (unknown origin) assessed as dissociation rate constant by SPR assay. On the technique in general: SPR reads the build-up and loss of mass on a sensor chip optically.
Series [4] concerns the target T1, Coagulation factor X. Kind of series: Binding affinity to factor 10a (unknown origin) by SPR assay.
The subject of the next series is Plasma. Kind of series: Anticoagulant activity in plasma assessed as concentration required to double the activated partial thromboplastin time. The class given is ADME, cell-free.

T1 sequence (P00742 41-179 limits assumed): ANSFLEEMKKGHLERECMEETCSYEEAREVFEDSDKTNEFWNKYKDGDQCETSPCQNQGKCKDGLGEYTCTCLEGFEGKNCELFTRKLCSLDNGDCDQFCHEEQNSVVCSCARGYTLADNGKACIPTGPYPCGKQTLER
T1 sequence (P00742 235-488 limits assumed): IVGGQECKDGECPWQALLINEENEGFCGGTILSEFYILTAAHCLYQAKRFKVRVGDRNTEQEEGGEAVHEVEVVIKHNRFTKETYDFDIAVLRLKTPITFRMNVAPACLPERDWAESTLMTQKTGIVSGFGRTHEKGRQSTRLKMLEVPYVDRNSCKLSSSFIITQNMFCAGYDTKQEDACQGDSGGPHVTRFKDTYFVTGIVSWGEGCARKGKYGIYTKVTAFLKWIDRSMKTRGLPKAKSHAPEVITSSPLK

At Coagulation factor X [1], `CCOC(=O)[C@]1(C)CCC[C@@]2(C)[C@@H]3CC[C@@]4(C)C[C@]3(CC[C@@H]21)C[C@H]4O` yielded an IC50 of 12.7 µM.

At Coagulation factor X [1], `CCOC(=O)[C@]1(C)CCC[C@@]2(C)[C@@H]3CC[C@@]4(C)C[C@]3(CC[C@@H]21)C[C@H]4OCc1cn(-c2ccc(OC)cc2)nn1` gave an IC50 of 19.3 µM.

With `CCOC(=O)[C@]1(C)CCC[C@@]2(C)[C@@H]3CC[C@@]4(C)C[C@]3(CC[C@@H]21)C/C4=N\NC(=S)Nc1ccc(C(F)(F)F)cc1`, the IC50 on Coagulation factor X [1] came out at 8.66 µM.

Turning to `CCOC(=O)[C@]1(C)CCC[C@@]2(C)[C@@H]3CC[C@@]4(C)C[C@]3(CC[C@@H]21)C[C@H]4OCc1cn(-c2ccccc2C)nn1`, the IC50 on Coagulation factor X [1] was determined as 34.5 µM.

With `CCOC(=O)[C@]1(C)CCC[C@@]2(C)[C@@H]3CC[C@@]4(C)C[C@]3(CC[C@@H]21)C/C4=N\NC(=S)Nc1ccc(C)cc1`, the IC50 against Coagulation factor X [1] was found to be 57.7 µM.

For the molecule `CCOC(=O)[C@]1(C)CCC[C@@]2(C)[C@@H]3CC[C@@]4(C)C[C@]3(CC[C@@H]21)C/C4=N\NC(=S)Nc1ccc(F)cc1`, it took 27.5 µM to reach half-maximal inhibition against Coagulation factor X [1] (IC50).

For `CCOC(=O)[C@]1(C)CCC[C@@]2(C)[C@@H]3CC[C@@]4(C)C[C@]3(CC[C@@H]21)C[C@H]4OCc1cn(Cc2ccccc2)nn1`, the midpoint of inhibition against Coagulation factor X [1], the IC50, lay at 29.4 µM.

At Coagulation factor X [1], `CCOC(=O)[C@]1(C)CCC[C@@]2(C)[C@@H]3CC[C@@]4(C)C[C@]3(CC[C@@H]21)C/C4=N\NC(=S)Nc1cccc2ccccc12` registered an IC50 of 0.955 µM.

`CCOC(=O)[C@]1(C)CCC[C@@]2(C)[C@@H]3CC[C@@]4(C)C[C@]3(CC[C@@H]21)C/C4=N\NC(=S)Nc1ccc(C(C)(C)C)cc1` gave an IC50 against Coagulation factor X [1] of 9.03 µM.

For the molecule `CCOC(=O)[C@]1(C)CCC[C@@]2(C)[C@@H]3CC[C@@]4(C)C[C@]3(CC[C@@H]21)C/C4=N\NC(=S)Nc1cccc(Cl)c1Cl`, on Coagulation factor X [1], the IC50 amounted to 7.73 µM.

`CCOC(=O)[C@]1(C)CCC[C@@]2(C)[C@@H]3CC[C@@]4(C)C[C@]3(CC[C@@H]21)C/C4=N\NC(=S)Nc1ccccc1Cl` displayed an IC50 against Coagulation factor X [1] of 0.209 µM. Further, the Ka on Coagulation factor X [2] was found to be 1.88 ×10⁴ /M/s. The Kd was 1.87 ×10⁻¹ /s on Coagulation factor X [3] and 9.98 µM on Coagulation factor X [4].

For the molecule `CCOC(=O)[C@]1(C)CCC[C@@]2(C)[C@@H]3CC[C@@]4(C)C[C@]3(CC[C@@H]21)C[C@H]4OCc1cn(-c2ccc(C(C)C)cc2)nn1`, at Coagulation factor X [1], the 50% inhibitory concentration (IC50) turned out to be 20.3 µM.

Take `CCOC(=O)[C@]1(C)CCC[C@@]2(C)[C@@H]3CC[C@@]4(C)C[C@]3(CC[C@@H]21)C/C4=N\NC(=S)Nc1ccccc1`: the 50% inhibitory concentration (IC50) on Coagulation factor X [1] was 13.4 µM.

As to `C[C@@]12CC[C@@H]3[C@@](CC[C@H]4[C@@]3(C)CCC[C@@]4(C)C(=O)O)(CC1=O)C2` [ISOSTEVIOL], the midpoint of inhibition on Coagulation factor X [1], the IC50, lay at 0.642 µM.

On to `CCOC(=O)[C@]1(C)CCC[C@@]2(C)[C@@H]3CC[C@@]4(C)C[C@]3(CC[C@@H]21)C/C4=N\NC(=S)Nc1ccc(C#N)cc1`, for which, at Coagulation factor X [1], inhibition was half-maximal at 13.6 µM (IC50).

As for `CCOC(=O)[C@]1(C)CCC[C@@]2(C)[C@@H]3CC[C@@]4(C)C[C@]3(CC[C@@H]21)C/C4=N\NC(=S)Nc1ccc(C(C)C)cc1`, the IC50 on Coagulation factor X [1] was 54.9 µM.

The molecule `CCOC(=O)[C@]1(C)CCC[C@@]2(C)[C@@H]3CC[C@@]4(C)C[C@]3(CC[C@@H]21)C[C@H]4OCc1cn(-c2ccc(Br)cc2)nn1` showed an IC50 at Coagulation factor X [1] of 3.34 µM.

`C#CCO[C@@H]1C[C@]23CC[C@H]4[C@@](C)(CCC[C@@]4(C)C(=O)OCC)[C@@H]2CC[C@@]1(C)C3` returned an IC50 on Coagulation factor X [1] of 32.4 µM.

`CCOC(=O)[C@]1(C)CCC[C@@]2(C)[C@@H]3CC[C@@]4(C)C[C@]3(CC[C@@H]21)C[C@H]4OCc1cn(-c2ccc(F)cc2)nn1` displayed an IC50 on Coagulation factor X [1] of 8.74 µM.

At Coagulation factor X [1], `CCOC(=O)[C@]1(C)CCC[C@@]2(C)[C@@H]3CC[C@@]4(C)C[C@]3(CC[C@@H]21)C/C4=N\NC(=S)Nc1cccc(Cl)c1` showed an IC50 of 0.196 µM. Moreover, at Coagulation factor X [2], the Ka amounted to 1.84 ×10⁴ /M/s. In addition, the Kd on Coagulation factor X [3] worked out at 1.56 ×10⁻¹ /s; on Coagulation factor X [4], 8.44 µM. Moreover, the 2aPTT with Plasma is 17.12 µM.

In turn, `CCOC(=O)[C@]1(C)CCC[C@@]2(C)[C@@H]3CC[C@@]4(C)C[C@]3(CC[C@@H]21)C/C4=N\NC(=S)Nc1cccc(N(C)C)c1` came in with an IC50 against Coagulation factor X [1] of 29.6 µM.

For `CCOC(=O)[C@]1(C)CCC[C@@]2(C)[C@@H]3CC[C@@]4(C)C[C@]3(CC[C@@H]21)C/C4=N\NC(=S)Nc1ccc(OC)cc1OC`, on Coagulation factor X [1], the IC50 stood at 33.6 µM.

In the case of `CCOC(=O)[C@]1(C)CCC[C@@]2(C)[C@@H]3CC[C@@]4(C)C[C@]3(CC[C@@H]21)C[C@H]4OCc1cn(-c2ccc(C)cc2)nn1`, the IC50 against Coagulation factor X [1] is 5.53 µM.

On to `CCOC(=O)[C@]1(C)CCC[C@@]2(C)[C@@H]3CC[C@@]4(C)C[C@]3(CC[C@@H]21)C[C@H]4OCc1cn(-c2ccccc2)nn1`, for which the IC50 against Coagulation factor X [1] turned out to be 10.4 µM.

Regarding `CCOC(=O)[C@]1(C)CCC[C@@]2(C)[C@@H]3CC[C@@]4(C)C[C@]3(CC[C@@H]21)C[C@H]4OCc1cn(-c2cc(C)cc(C)c2)nn1`, the IC50 on Coagulation factor X [1] is 6.33 µM.

In the case of `CCOC(=O)[C@]1(C)CCC[C@@]2(C)[C@@H]3CC[C@@]4(C)C[C@]3(CC[C@@H]21)C/C4=N\NC(=S)Nc1ccc(Cl)cc1`, the IC50 against Coagulation factor X [1] amounted to 0.153 µM. For the same molecule, on Coagulation factor X [2], the Ka is 1.93 ×10⁴ /M/s. Besides, the Kd turned out to be 1.45 ×10⁻¹ /s at Coagulation factor X [3] and 7.52 µM at Coagulation factor X [4]. Further, in the series with Plasma, the 2aPTT is 9.31 µM.

As for `CCOC(=O)[C@]1(C)CCC[C@@]2(C)[C@@H]3CC[C@@]4(C)C[C@]3(CC[C@@H]21)C/C4=N\N`, the IC50 against Coagulation factor X [1] turned out to be 2.82 µM.

At Coagulation factor X [1], `CCOC(=O)[C@]1(C)CCC[C@@]2(C)[C@@H]3CC[C@@]4(C)C[C@]3(CC[C@@H]21)C[C@H]4OCc1cn(-c2ccc(Cl)cc2)nn1` showed an IC50 of 27.3 µM.

The molecule `CCOC(=O)[C@]1(C)CCC[C@@]2(C)[C@@H]3CC[C@@]4(C)C[C@]3(CC[C@@H]21)C/C4=N\NC(=S)Nc1ccc([N+](=O)[O-])cc1` had a concentration for half-maximal inhibition (IC50) against Coagulation factor X [1] of 8.46 µM.

As to `CCOC(=O)[C@]1(C)CCC[C@@]2(C)[C@@H]3CC[C@@]4(C)C[C@]3(CC[C@@H]21)C/C4=N\NC(=S)Nc1cccc(C)c1`, half-maximal inhibition on Coagulation factor X [1] (IC50) required 3.76 µM.

Molecule `CCOC(=O)[C@]1(C)CCC[C@@]2(C)[C@@H]3CC[C@@]4(C)C[C@]3(CC[C@@H]21)C/C4=N\NC(=S)Nc1ccccc1C` showed an IC50 on Coagulation factor X [1] of 4.15 µM.

Turning to `CCOC(=O)[C@]1(C)CCC[C@@]2(C)[C@@H]3CC[C@@]4(C)C[C@]3(CC[C@@H]21)C[C@H]4OCc1cn(-c2cccc3ccccc23)nn1`, the midpoint of inhibition at Coagulation factor X [1], the IC50, lay at 4.87 µM.

Take `CCOC(=O)[C@]1(C)CCC[C@@]2(C)[C@@H]3CC[C@@]4(C)C[C@]3(CC[C@@H]21)C/C4=N\NC(=S)Nc1cccc(OC)c1`: the midpoint of inhibition on Coagulation factor X [1], the IC50, lay at 18.4 µM.

For the molecule `CCOC(=O)[C@]1(C)CCC[C@@]2(C)[C@@H]3CC[C@@]4(C)C[C@]3(CC[C@@H]21)CC4=O`, the IC50 against Coagulation factor X [1] was 0.786 µM.

In turn, `CCOC(=O)[C@]1(C)CCC[C@@]2(C)[C@@H]3CC[C@@]4(C)C[C@]3(CC[C@@H]21)C/C4=N\NC(=S)Nc1ccc(OC)cc1` registered an IC50 on Coagulation factor X [1] of 6.65 µM.

Take `CCOC(=O)[C@]1(C)CCC[C@@]2(C)[C@@H]3CC[C@@]4(C)C[C@]3(CC[C@@H]21)C[C@H]4OCc1cn(-c2cccc(Cl)c2)nn1`: half-maximal inhibition on Coagulation factor X [1] (IC50) required 17.7 µM.

At Coagulation factor X [1], `CCOC(=O)[C@]1(C)CCC[C@@]2(C)[C@@H]3CC[C@@]4(C)C[C@]3(CC[C@@H]21)C[C@H]4OCc1cn(-c2ccc3c(c2)OCO3)nn1` returned an IC50 of 7.57 µM.

In turn, `CCOC(=O)[C@]1(C)CCC[C@@]2(C)[C@@H]3CC[C@@]4(C)C[C@]3(CC[C@@H]21)C/C4=N\NC(=S)Nc1ccc(Br)cc1` came in with an IC50 on Coagulation factor X [1] of 8.77 µM.

As to `CCOC(=O)[C@]1(C)CCC[C@@]2(C)[C@@H]3CC[C@@]4(C)C[C@]3(CC[C@@H]21)C[C@H]4OCc1cn(-c2cccc(C)c2)nn1`, the IC50 at Coagulation factor X [1] came to 41.7 µM.

(Values after ChEMBL document CHEMBL4602655, “Synthesis and biological evaluation of Isosteviol derivatives as FXa inhibitors” (Bioorg Med Chem Lett, 2020).)
